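GI50: concentration for 50% inhibition of growth. TGI: total growth inhibition.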
What was measured:
Assay in all cases: NCI tumour cell line growth inhibition, 384-well format
M14 melanoma = test system: M14 melanoma
MDA-MB-468 breast = test system: MDA-MB-468 breast
SNB-75 CNS = test system: SNB-75 CNS
UO-31 renal = test system: UO-31 renal
NCI-H226 lung = test system: NCI-H226 lung
SW-620 colon = test system: SW-620 colon
SF-268 CNS = test system: SF-268 CNS
SR leukemia = test system: SR leukemia
OVCAR-3 ovarian = test system: OVCAR-3 ovarian
LOX IMVI melanoma = test system: LOX IMVI melanoma
HOP-62 NSCLC = test system: HOP-62 NSCLC
HCC-2998 colon = test system: HCC-2998 colon
SK-OV-3 ovarian = test system: SK-OV-3 ovarian
DU-145 prostate = test system: DU-145 prostate
ACHN renal = test system: ACHN renal
MCF7 breast = test system: MCF7 breast
U251 glioblastoma = test system: U251 glioblastoma
KM12 colon = test system: KM12 colon
SF-539 CNS = test system: SF-539 CNS
UACC-257 melanoma = test system: UACC-257 melanoma
OVCAR-8 ovarian = test system: OVCAR-8 ovarian
SK-MEL-2 melanoma = test system: SK-MEL-2 melanoma
NCI/ADR-RES ovarian = test system: NCI/ADR-RES ovarian
IGROV1 ovarian = test system: IGROV1 ovarian
RPMI-8226 leukemia = test system: RPMI-8226 leukemia
BT-549 breast = test system: BT-549 breast
SK-MEL-5 melanoma = test system: SK-MEL-5 melanoma
A549 NSCLC = test system: A549 NSCLC
TK-10 renal = test system: TK-10 renal
786-0 renal = test system: 786-0 renal

CC1(C)CC[C@H](Nc2ncc(C(F)(F)F)c(-c3c[nH]c4c(P(C)(C)=O)c(C#N)ccc34)n2)CN1
GI50 (M14 melanoma): 0.0168 µM | TGI (M14 melanoma): 2.21 µM | GI50 (MDA-MB-468 breast): 1.36 µM | TGI (MDA-MB-468 breast): 3.01 µM | GI50 (SNB-75 CNS): 1.57 µM | TGI (SNB-75 CNS): 3.2 µM | GI50 (UO-31 renal): 0.335 µM | TGI (UO-31 renal): 8.12 µM | GI50 (NCI-H226 lung): 0.577 µM | TGI (NCI-H226 lung): 12.6 µM | GI50 (SW-620 colon): < 0.01 µM | TGI (SW-620 colon): 10.2 µM | GI50 (SF-268 CNS): 0.132 µM | TGI (SF-268 CNS): 1.99 µM | GI50 (SR leukemia): < 0.01 µM | TGI (SR leukemia): < 0.01 µM | GI50 (OVCAR-3 ovarian): < 0.01 µM | TGI (OVCAR-3 ovarian): < 0.01 µM | GI50 (LOX IMVI melanoma): < 0.01 µM | TGI (LOX IMVI melanoma): 0.213 µM | GI50 (HOP-62 NSCLC): < 0.01 µM | TGI (HOP-62 NSCLC): 0.0182 µM | GI50 (HCC-2998 colon): < 0.01 µM | TGI (HCC-2998 colon): 4.21 µM | GI50 (SK-OV-3 ovarian): 1.13 µM | TGI (SK-OV-3 ovarian): 6.25 µM | GI50 (DU-145 prostate): < 0.01 µM | TGI (DU-145 prostate): 3.79 µM | GI50 (ACHN renal): 0.0736 µM | TGI (ACHN renal): 8.68 µM | GI50 (MCF7 breast): < 0.01 µM | TGI (MCF7 breast): 1.45 µM | GI50 (U251 glioblastoma): 0.0133 µM | TGI (U251 glioblastoma): 10.4 µM | GI50 (KM12 colon): < 0.01 µM | TGI (KM12 colon): 1.68 µM | GI50 (SF-539 CNS): < 0.01 µM | TGI (SF-539 CNS): 1.3 µM | GI50 (UACC-257 melanoma): 1.02 µM | TGI (UACC-257 melanoma): 3.45 µM | GI50 (OVCAR-8 ovarian): 0.0743 µM | TGI (OVCAR-8 ovarian): 6.28 µM | GI50 (SK-MEL-2 melanoma): 1.22 µM | TGI (SK-MEL-2 melanoma): 3.17 µM | GI50 (NCI/ADR-RES ovarian): 2.5 µM | TGI (NCI/ADR-RES ovarian): 12.6 µM | GI50 (IGROV1 ovarian): < 0.01 µM | TGI (IGROV1 ovarian): 13.8 µM | GI50 (RPMI-8226 leukemia): < 0.01 µM | TGI (RPMI-8226 leukemia): < 0.01 µM | GI50 (BT-549 breast): 0.0113 µM | TGI (BT-549 breast): 0.205 µM | GI50 (SK-MEL-5 melanoma): 0.0438 µM | TGI (SK-MEL-5 melanoma): 1.42 µM | GI50 (A549 NSCLC): 0.0663 µM | TGI (A549 NSCLC): 12 µM | GI50 (TK-10 renal): 0.887 µM | TGI (TK-10 renal): 10.4 µM | GI50 (786-0 renal): < 0.01 µM
